According to patent publication US8507656B2, “Stabilized angiopoietin-2 antibodies and uses thereof” (MedImmune Limited, priority 2008, dated 2013):
“Also recorded” adds a separate entry of the source. Read-outs that look alike come from different tables or passages of the source. Marks after values point to notes of the source that are not given here.

What was measured:
[1] = tested on: LoVo xenograft tumors; type: in vivo; conditions: 3.19.3 10 mg/kg 2×wk i.p., 5FU 100 mg/kg/week i.p., combination of both
Description: (§1) The anti-tumor activity of 3.19.3 was evaluated in combination with 5-Fluoruracil (5FU) in the LoVo xenograft model of colorectal cancer. LoVo cells were cultured in flasks as routine until the cells reached sub-confluence. Cell suspensions containing approximately 3×10E6 cells were injected subcutaneously into the flank of female Swiss nude mice. When the tumor volume reached 200 mm^3, the mice were randomized in treatment groups of 8-10 mice and the treatments were initiated. 3.19.3 (10 mg/kg) in saline was injected intraperitoneally, twice per week for 2 weeks and 5-Flurouracil (100 mg/kg) was administered by intraperitoneal administration following a weekly schedule. The dimensions of each tumor and body weights were measured at least twice per week. The volume of the tumor was calculated as: Volume=Length×(Width)×0.5 (cm^3).

[2] = tested on: Calu6 xenograft tumors; type: in vivo; conditions: 3.19.3 10 mg/kg 2×wk i.p., Docetaxel 15 mg/kg/week i.v., combination of both
Description: as §1, with “with Docetaxel” for “with 5-Fluoruracil (5FU)”, “the Calu6” for “the LoVo”, “of lung” for “of colorectal”, “cancer. Calu6” for “cancer. LoVo”, “2 weeks. Docetaxel (15” for “2 weeks and 5-Flurouracil (100”, “by intravenous” for “by intraperitoneal”

[3] = tested on: Colo205 xenograft tumors; test: Colo205 xenograft model of colorectal cancer; type: in vivo; conditions: 3.19.3 10 mg/kg 2×wk i.p., Gemcitabine 50 mg/kg q3dx2 i.v., combination of both
Description: (§2) The anti-tumor activity of 3.19.3 was evaluated in combination with Gemcitabine in the Colo205 xenograft model of colorectal cancer. Colo205 cells were cultured in flasks as routine until the cells reached sub-confluence. Cell suspensions containing approximately 3×10E6 cells were injected subcutaneously into the flank of female Swiss nude mice. When the tumor volume reached 200 mm^3, the mice were randomized in treatment groups of 8-10 mice and the treatments were initiated. 3.19.3 (10 mg/kg) in saline was injected intraperitoneally, twice per week for 2 weeks. Gemcitabine (50 mg/kg) was administered by intravenous administration following a q3d schedule. The dimensions of each tumor and body weights were measured at least twice per week. The volume of the tumor was calculated as: Volume=Length×(Width)×0.5 (cm^3). […] The % tumor growth inhibition achieved is as follows: […]

[4] = tested on: H460 xenograft tumors; type: in vivo; conditions: 3.19.3 10 mg/kg 2×wk i.p., Oxaliplatin 5 mg/kg/week i.p., combination of both
Description: as §1, with “Oxaliplatin” for “5-Fluoruracil (5FU)”, “H460” for “LoVo”, “lung” for “colorectal”, “weeks. Oxaliplatin (5” for “weeks and 5-Flurouracil (100”

[5] = tested on: collagen induced arthritis
[6] = tested on: collagen-induced arthritis; test: Collagen-induced arthritis (CIA), dose response (Example 11); type: in vivo, male DBA/1 mice
[7] = tested on: MCF7 xenograft tumors; test: MCF7 breast cancer xenograft model; type: in vivo; conditions: 3.19.3 10 mg/kg 2×wk i.p., AZD6495 30 mg/kg bid p.o. 18 d, combination of both
Description: The anti-tumor activity of the anti-Angiopoietin-2 monoclonal antibody 3.19.3 in combination with the small molecule CSF1R tyrosine kinase inhibitor AZD6495 (4-[(2,4-difluorophenyl)amino]-7-ethoxy-6-(4-methylpiperazin-1-yl)quinoline-3-carboxamide) was evaluated in a xenograft model of human breast carcinoma using the MCF7 cell line (FIG. 4a).
Materials and Methods: Breast carcinoma MCF7 cells were cultured in flasks as routine until the cells reach sub-confluence. Immunodeficient 7-10 week old male NCr-nude mice were subcutaneously implanted with 8×10^6 MCF7 cells suspended 1:1 in Matrigel in the right flank. […]
The mice were then randomized into cohorts containing 15 mice once the tumors reached approximately 100 mm^3. […] The body weights of each animal, and the dimensions of each tumor were measured twice per week. The volume of the tumor was calculated as: Volume=Length×(Width)^2×0.5 cm^3, or by bilateral Vernier caliper measurement and, taking length to be the longest diameter across the tumor and width the corresponding perpendicular, calculated using the formula (π/6)×(length×width)×√(length×width). Growth inhibition from the start of treatment was assessed by comparison of the differences in tumor volume between control and treated groups.

[8] = tested on: MDA-MB-231 xenograft tumors; test: MDA-MB-231 orthotopic breast cancer xenograft model; type: in vivo; conditions: 3.19.3 10 mg/kg 2×wk i.p., AZD6495 30 mg/kg bid p.o. 18 d, combination of both
Description: The anti-tumor activity of the anti-Angiopoietin-2 monoclonal antibody 3.19.3 in combination with the small molecule CSF1R tyrosine kinase inhibitor AZD6495 was evaluated in a xenograft model of human breast carcinoma using the MDA-MB-231 cell line (FIG. 5a).
Breast adenocarcinoma MDA-MB-231 cells were cultured in flasks as routine until the cells reach sub-confluence. Immunodeficient 7-10 week old female nude mice were orthotopically implanted with 8×10^6 MDA-MB-231 cells suspended 1:1 in Matrigel into the mammary fat pad. The mice were then randomized into cohorts containing 10 mice once the tumors reached approximately 100 mm^3. The mice were treated by intraperitoneally (IP) injection with mAb 3.19.3 (10 mg/kg) twice per week for 3 weeks thereafter, or by oral administration of AZD6495 (30 mg/kg) following bid dosing for 18 days. […] The body weights of each animal, and the dimensions of each tumor were measured twice per week. The volume of the tumor was calculated as: Volume=Length×(Width)^2×0.5 cm^3, or by bilateral Vernier caliper measurement and, taking length to be the longest diameter across the tumor and width the corresponding perpendicular, calculated using the formula (π/6)×(length×width)×√(length×width). Growth inhibition from the start of treatment was assessed by comparison of the differences in tumor volume between control and treated groups.

[9] = tested on: HT-29 xenograft tumors; test: HT-29 xenograft model of colorectal cancer; type: in vivo; conditions: 3.19.3 10 mg/kg 2×wk i.p., Irinotecan 35 mg/kg/week i.v., combination of both
Description: as §2, with “Irinotecan” for “Gemcitabine”, “HT-29” for “Colo205”, “Irinotecan (35” for “Gemcitabine (50”, “weekly” for “q3d”

[10] = Differential Scanning Calorimetry (DSC) analysis; type: physicochemical; conditions: 1 g/L antibody in 10 mM histidine, pH 6.0
[11] = Stability study: rate of aggregation of antibody formulations; type: physicochemical; conditions: 10 mg/ml in 10 mM histidine pH 6.0, two weeks
Description: Samples of the aforementioned formulations were incubated at either 25° C. or 40° C. for two weeks. As a measure of stability, the rate of aggregation (% aggregation/mth) was calculated after the two week time point.

[12] = means ± SEM, 3.19.3 10 mg/kg i.p every 3 days, hIgG i.p, Prednisolone 3 mg/kg p.o daily, 14 days from disease onset
[13] = 3 mg/kg po daily for 14 days from disease onset

Molecule: O=c1[nH]cc(F)c(=O)[nH]1 [5-flurouracil, 5-Flurouracil]
- % tumor growth inhibition [1]: 62%
- % tumor growth inhibition ([1]; listed as 5 FU): 62%

Molecule: CC(=O)O[C@@]12CO[C@@H]1C[C@H](O)[C@@]1(C)C(=O)[C@H](O)C3=C(C)[C@@H](OC(=O)[C@H](O)[C@@H](NC(=O)OC(C)(C)C)c4ccccc4)C[C@@](O)([C@@H](OC(=O)c4ccccc4)[C@H]21)C3(C)C [Docetaxel]
- % tumor growth inhibition [2]: 43%

Molecule: Nc1ccn([C@@H]2O[C@H](CO)[C@@H](O)C2(F)F)c(=O)n1 [Gemcitabine]
- % tumor growth inhibition [3]: 8%

Molecule: O=C1[O][Pt]2([NH][C@@H]3CCCC[C@H]3[NH]2)[O]C1=O [Oxaliplatin]
- % tumor growth inhibition [4]: 35%

Molecule: C[C@]12C=CC(=O)C=C1CC[C@@H]1[C@@H]2[C@@H](O)C[C@@]2(C)[C@H]1CC[C@]2(O)C(=O)CO [Prednisolone]
- histopathological evaluation of arthropathy lesions (in words) ([5]; 3.19.3 10 mg/kg, Human IgG isotype control, Prednisolone 3 mg/kg): marked reduction in the incidence and severity of all arthropathy lesions
- % Inhibition (of AUC of clinical disease progression) [5, 12]: 76.1% ± 9.6%
- Area Under Curve (AUC) of clinical disease progression [5, 12]: 24.5 ± 9.6
- % inhibition (AUC of Clinical Score) [6, 13]: 78% +/− 7%*
- AUC of Clinical Score [6, 13]: 41 +/− 08
- CD31+ microvessel density in synovium (in words) ([6]; 3.19.3 at 1 and 10 mg/kg, prednisolone 3 mg/kg): significant reduction in microvessel density; also recorded: significant reduction in the presence of microvessels
- incidence and severity of all measures (in words) ([6]; Prednisolone 3 mg/kg p.o.): marked reduction in the incidence and severity of all measures

Molecule: CCOc1cc2ncc(C(N)=O)c(Nc3ccc(F)cc3F)c2cc1N1CCN(C)CC1 [AZD6495, 4-[(2,4-difluorophenyl)amino]-7-ethoxy-6-(4-methylpiperazin-1-yl)quinoline-3-carboxamide]
- % tumor growth inhibition [7]: 32%
- % tumor growth inhibition [8]: 25%

Molecule: CCc1c2c(nc3ccc(OC(=O)N4CCC(N5CCCCC5)CC4)cc13)-c1cc3c(c(=O)n1C2)COC(=O)[C@]3(O)CC [Irinotecan]
- % tumor growth inhibition [9]: 56%

B1: MEDI1/5 IgG1: heavy and light chains SEQ ID Nos. 7 and 3 in IgG1 format (antibody)
VH: QVQLVESGGGVVQPGRSLRLSCAASGFTFTNYGMHWVRQAPGKGLEWVAVISHDGNNKYYVDSVKGRFTISRDNSKNTLYLQMNSLRAEDTAVYYCAREGIDFWSGLNWFDPWGQGTLVTVSS
light: EIVLTQSPGTLSLSPGERATLSCRASQSITGSYLAWYQQKPGQAPRLLITGASSWATGIPDRFSGSGSGTDFTLTISRLEPEDFAVYYCQQYSSSPITFGQGTRLEIKRTVAAPSVFIFPPSDEQLKSGTASVVCLLNNFYPREAKVQWKVDNALQSGNSQESVTEQDSKDSTYSLSSTLTLSKADYEKHKVYACEVTHQGLSSPVTKSFNRGEC
modifications: IgG1 format
- melting temperature [10]: about 76 °C
- % Agg/mth @ 25° C. [11]: 0.21 % Agg/mth
- % Agg/mth @ 40° C. [11]: 0.21 % Agg/mth

B2: MEDI1/5 IgG2: heavy and light chains SEQ ID Nos. 7 and 3 in IgG2 format (antibody)
VH: QVQLVESGGGVVQPGRSLRLSCAASGFTFTNYGMHWVRQAPGKGLEWVAVISHDGNNKYYVDSVKGRFTISRDNSKNTLYLQMNSLRAEDTAVYYCAREGIDFWSGLNWFDPWGQGTLVTVSS
light: EIVLTQSPGTLSLSPGERATLSCRASQSITGSYLAWYQQKPGQAPRLLITGASSWATGIPDRFSGSGSGTDFTLTISRLEPEDFAVYYCQQYSSSPITFGQGTRLEIKRTVAAPSVFIFPPSDEQLKSGTASVVCLLNNFYPREAKVQWKVDNALQSGNSQESVTEQDSKDSTYSLSSTLTLSKADYEKHKVYACEVTHQGLSSPVTKSFNRGEC
modifications: IgG2 format
- melting temperature [10]: about 76 °C
- behaviour after melting in DSC (in words) ([10]; two independent trials): subsequently falls out of solution
- % Agg/mth @ 25° C. [11]: 0.61 % Agg/mth
- % Agg/mth @ 40° C. [11]: 0.82 % Agg/mth
